Experimental data taken from patent publication US11028068B2, “Somatostatin modulators and uses thereof” (Crinetics Pharmaceuticals, Inc., priority 2017, dated 2021).

Target: T1, human somatostatin receptor subtype 2 (Homo sapiens, UniProt P30874)
T1 construct: expressed in transfected cells; host or cells: CHO (Chinese hamster ovary) cells, cultured under G-418 selection
Assay: cAMP assay (inhibition of cAMP activities via sst2 receptor)
Format: cell-based
Settings: CHO cells expressing the human somatostatin receptor subtype 2, forskolin
Description: General overview: All five SSTR subtypes are Gi coupled G-protein coupled receptors (GPCRs) that lead to decreases in intracellular cyclic AMP (cAMP) when activated by an agonist. Therefore, measurement of intracellular cAMP levels can be used to assess whether compounds of the invention are agonists of SSTR subtypes (John Kelly, Troy Stevens, W. Joseph Thompson, and Roland Seifert, Current Protocols in Pharmacology, 2005,2.2.1-2.2). One example of an intracellular cAMP assay is described below.
One day prior to the assay, 40,000 Chinese hamster ovary (CHO) cells expressing the human somatostatin receptor subtype 2 are plated in each well of a 96-well tissue culture plate in DM-MEM growth media (Gibco) with the following additives: 10% fetal bovine serum (Gibco), 100 U/mL penicillin (Gibco), 100 ug/mL streptomycin (Gibco), 10 mM HEPES (Gibco), 1.2 mM sodium hydroxide, 0.5 mg/mL G-418 (Gibco)). The cells are cultured overnight at 37° C., 5% CO2 and 95% humidity. On the day of the assay, the media is aspirated and the cells are washed with 1X Dulbecco's phosphate buffered saline (Gibco). Next, 5 μL of assay buffer (1× Earle's Balanced Salt Solution (Gibco), 5 mM MgCl2, 10 mM HEPES, 0.1% bovine serum albumin, 0.2 mM 3-Isobutyl-1-methylxanthine (IBMX, Biomol Research Labs)) and forskolin is added. Various dilutions of the compounds of the invention are prepared in assay buffer and 5 μL of the dilutions are added to the cultured cells and incubated for 15 minutes at 37° C. (the final concentration of the compounds of the invention are typically 0-10,000 nM). 10 μL of lysis buffer (HRTF cAMP kit, Cisbio) containing cAMP detection and visualization antibodies are added and the assay is allowed incubate for 1-24 hours at room temperature. The intracellular cAMP concentrations are then measured using a commercially available detection kit (for example, the cAMP HTRF kit, Cisbio). The measured intracellular cAMP concentrations are plotted vs. the concentration of the compounds of the invention and the EC50 of the compounds are calculated using standard methods.

T1 sequence (P30874 whole entry): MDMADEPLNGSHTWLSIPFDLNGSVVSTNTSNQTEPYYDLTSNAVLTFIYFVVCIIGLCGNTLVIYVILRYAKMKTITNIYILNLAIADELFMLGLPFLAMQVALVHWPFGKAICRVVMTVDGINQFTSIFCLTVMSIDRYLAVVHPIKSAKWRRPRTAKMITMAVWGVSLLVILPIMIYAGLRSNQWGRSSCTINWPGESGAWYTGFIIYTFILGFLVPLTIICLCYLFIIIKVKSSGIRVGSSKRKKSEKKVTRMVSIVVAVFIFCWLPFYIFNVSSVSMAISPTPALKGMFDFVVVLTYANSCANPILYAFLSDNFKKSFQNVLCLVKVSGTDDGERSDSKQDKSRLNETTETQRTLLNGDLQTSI

EC50 [nM]	Compound
39	Cc1cc(Cl)cc(-c2cnc3ccc(-c4cccc(O)c4)cc3c2C(=O)N(C)C[C@H]2CCCN2)c1 (single isomer, unassigned) [Compound 1-5]
0.12	Cc1cc(Cl)cc(-c2cnc3ccc(-c4cccc(O)c4)cc3c2C(=O)N(C)C[C@@H]2CCCN2)c1 [Compound 1-1, 3-(3-chloro-5-methylphenyl)-6-(3-hydroxyphenyl)-N-methyl-N-[(2S) -pyrrolidin-2-ylmethyl]quinoline-4-carboxamide]
100 to 1000	CC[C@H](N)CN(C)C(=O)c1c(-c2cc(C)cc(Cl)c2)cnc2ccc(-c3cc(O)cc(C(N)=O)c3)cc12 [Compound 1-8, N-[(25)-2-aminobutyl]-6-(3-carbamoyl-5-hydroxyphenyl)-3-(3-chloro-5-methylphenyl)-N-methylquinoline-4-carboxamide]
100 to 1000	CN(C)C(=O)c1cccc(-c2cnc3ccc(-c4cccc(O)c4)cc3c2C(=O)N(C)C[C@@H]2CCCN2)c1 [Compound 1-73, 3-[3-(dimethylcarbamoyl)phenyl]-6-(3-hydroxyphenyl)-N-methyl-N-[(2S)-pyrrolidin-2-ylmethyl]quinoline-4-carboxamide]
< 100	Cc1cc(Cl)cc(-c2cnc3ccc(-c4cccc(O)c4)nc3c2C(=O)N(C)C[C@@H]2CCCN2)c1 [Compound 2-1, 3-(3-chloro-5-methylphenyl)-6-(3-hydroxyphenyl)-N-methyl-N-[(2S) -pyrrolidin-2-ylmethyl]-1,5-naphthyridine-4-carboxamide]
100 to 1000	CN(C[C@@H]1CCCN1)C(=O)c1c(-c2cccc(O)c2)cnc2ccc(-c3cccc(O)c3)nc12 [Compound 2-2, 3,6-bis(3-hydroxyphenyl)-N-methyl-N-[(2S)-pyrrolidin-2-ylmethyl]-1,5-naphthyridine-4-carboxamide]
< 100	Cc1cc(Cl)cc(-c2cnc3ccc(-c4cc(O)ccc4F)nc3c2C(=O)N(C)C[C@@H]2CCCN2)c1 [Compound 2-3, 3-(3-chloro-5-methylphenyl)-6-(2-fluoro-5-hydroxyphenyl)-N-methyl-N-[(2S)-pyrrolidin-2-ylmethyl]-1,5-naphthyridine-4-carboxamide]
100 to 1000	Cc1cc(Cl)cc(-c2cnc3ccc(-c4cc(O)cc(C#N)c4)nc3c2C(=O)N(C)C[C@@H]2CCCN2)c1 [Compound 2-4, 3-(3-chloro-5-methylphenyl)-6-(3-cyano-5-hydroxyphenyl)-N-methyl-N-[(2S)-pyrrolidin-2-ylmethyl]-1,5-naphthyridine-4-carboxamide]
< 100	CC[C@H](N)CN(C)C(=O)c1c(-c2cc(C)cc(C)c2)cnc2ccc(-c3cc(O)cc(C#N)c3)nc12 [Compound 2-5, N-[(2S)-2-aminobutyl]-6-(3-cyano-5-hydroxyphenyl)-3-(3,5-dimethylphenyl)-N-methyl-1,5-naphthyridine-4-carboxamide]
< 100	CC[C@H](N)CN(C)C(=O)c1c(-c2cc(C)cc(Cl)c2)cnc2ccc(-c3cc(O)cc(C#N)c3)nc12 [Compound 2-6, N-[(2S)-2-aminobutyl]-3-(3-chloro-5-methylphenyl)-6-(3-cyano-5-hydroxyphenyl)-N -methyl-1,5-naphthyridine-4-carboxamide]
< 100	CC[C@H](N)CN(C)C(=O)c1c(-c2cc(C)cc(F)c2)cnc2ccc(-c3cc(O)cc(C#N)c3)nc12 [Compound 2-7, N-[(2S)-2-aminobutyl]-6-(3-cyano-5-hydroxyphenyl)-3-(3-fluoro-5-methylphenyl)-N -methyl-1,5-naphthyridine-4-carboxamide]
100 to 1000	CN(C[C@@H]1CCCN1)C(=O)c1c(-c2cccc(-n3cccn3)c2)cnc2ccc(-c3cccc(O)c3)nc12 [Compound 2-8, 6-(3-hydroxyphenyl)-N-methyl-3-[3-(1H-pyrazol-1-yl)phenyl]-N-[(2S)-pyrrolidin-2-ylmethyl]-1,5-naphthyridine-4-carboxamide]
100 to 1000	CN(C[C@@H]1CCCN1)C(=O)c1c(-c2cccc(C#N)c2)cnc2ccc(-c3cc(F)cc(C#N)c3)nc12 [Compound 2-15, 6-(3-cyano-5-fluorophenyl)-3-(3-cyanophenyl)-N-methyl-N-[(2S)-pyrrolidin-2-ylmethyl]-1,5-naphthyridine-4-carboxamide]
100 to 1000	CN(CC1CCCN1)C(=O)c1c(-c2cccc(CC(=O)O)c2)cnc2ccc(-c3cccc(O)c3)nc12 (stereo not shown) [Compound 2-20, 2-{3-[6-(3-hydroxyphenyl)-4-[methyl(pyrrolidin-2-ylmethyl)carbamoyl]-1,5-naphthyridin-3-yl]phenyl}acetic acid]
100 to 1000	COC(=O)Cc1cccc(-c2cnc3ccc(-c4cccc(O)c4)nc3c2C(=O)N(C)C[C@@H]2CCCN2)c1 [Compound 2-21, methyl 2-{3-[6-(3-hydroxyphenyl)-4-{methyl[(2S)-pyrrolidin-2-ylmethyl]carbamoyl}-1,5-naphthyridin-3-yl]phenyl}acetate]
100 to 1000	CN(C[C@@H]1CCCN1)C(=O)c1c(-c2cccc(CCC(=O)O)c2)cnc2ccc(-c3cccc(O)c3)nc12 [Compound 2-22, 3-{3-[6-(3-hydroxyphenyl)-4-{methyl[(2S)-pyrrolidin-2-ylmethyl]carbamoyl}-1,5-naphthyridin-3-yl]phenyl}propanoic acid]
< 100	CN(C[C@@H]1CCCN1)C(=O)c1ccnc2ccc(-c3cccc(O)c3)nc12 [Compound 3-1, 6-(3-hydroxyphenyl)-N-methyl-N-[(2S)-pyrrolidin-2-ylmethyl]-1,5-naphthyridine-4-carboxamide]
100 to 1000	Cc1cc(F)cc(-c2cnc3ccc(N4CCCC4)nc3c2C(=O)N(C)C[C@@H]2CCCN2)c1 [Compound 3-2, 3-(3-fluoro-5-methylphenyl)-N-methyl-6-(pyrrolidin-1-yl)-N-[(2S)-pyrrolidin-2-ylmethyl]-1,5-naphthyridine-4-carboxamide]
100 to 1000	Cc1cc(F)cc(-c2cnc3ccc(N4CCCC(O)C4)nc3c2C(=O)N(C)C[C@@H]2CCCN2)c1 (stereo partly shown) [Compound 3-3]
< 100	CN(C[C@@H]1CCCN1)C(=O)c1c(N2CCCC2)cnc2ccc(-c3cccc(O)c3)nc12 [Compound 3-4, 6-(3-hydroxyphenyl)-N-methyl-3-(pyrrolidin-1-yl)-N-[(2S)-pyrrolidin-2-ylmethyl]-1,5-naphthyridine-4-carboxamide]
100 to 1000	Cc1cccc(-c2cnc3ccc(-c4cccc(O)c4)nc3c2C(=O)N(C)C[C@@H]2CCCN2)n1 [Compound 3-5, 6-(3-hydroxyphenyl)-N-methyl-3-(6-methylpyridin-2-yl)-N-[(2S)-pyrrolidin-2-ylmethyl]-1,5-naphthyridine-4-carboxamide]
< 100	CC1CN(c2cnc3ccc(-c4cccc(O)c4)nc3c2C(=O)N(C)C[C@@H]2CCCN2)CC(C)O1 (stereo partly drawn) [Compound 3-6, 3-(2,6-dimethylmorpholin-4-yl)-6-(3-hydroxyphenyl)-N-methyl-N-[(2S)-pyrrolidin-2-ylmethyl]-1,5-naphthyridine-4-carboxamide]
100 to 1000	CC#Cc1cnc2ccc(-c3cc(F)cc(C#N)c3)nc2c1C(=O)N(C)C[C@@H]1CCCN1 [Compound 3-7, 6-(3-cyano-5-fluorophenyl)-N-methyl-3-(prop-1-yn-1-yl)-N-[(2S)-pyrrolidin-2-ylmethyl]-1,5-naphthyridine-4-carboxamide]
< 100	Cc1cc(F)cc(-c2cnc3ccc(-c4cncc(C#N)c4)cc3c2C(=O)N(C)C[C@@H]2CCCN2)c1 [Compound 3-8, 6-(5-cyanopyridin-3-yl)-3-(3-fluoro-5-methylphenyl)-N-methyl-N-[(2S)-pyrrolidin-2-ylmethyl]quinoline-4-carboxamide]
< 100	CN(C[C@@H]1CCCN1)C(=O)c1c(C2=CCCC2)cnc2ccc(-c3cc(F)cc(C#N)c3)nc12 [Compound 3-9, 6-(3-cyano-5-fluorophenyl)-3-(cyclopent-1-en-1-yl)-N-methyl-N-[(2S)-pyrrolidin-2-ylmethyl]-1,5-naphthyridine-4-carboxamide]
100 to 1000	Cc1cc(F)cc(-c2cnc3ccc(-c4cnn(C)c4)cc3c2C(=O)N(C)C[C@@H]2CCCN2)c1 [Compound 3-10, 3-(3-fluoro-5-methylphenyl)-N-methyl-6-(1-methyl-1H-pyrazol-4-yl)-N-[(2S)-pyrrolidin-2-ylmethyl]quinoline-4-carboxamide]
100 to 1000	CN(C[C@@H]1CCCN1)C(=O)c1c(N2CCCCC2)cnc2ccc(-c3cccc(O)c3)nc12 [Compound 3-11, 6-(3-hydroxyphenyl)-N-methyl-3-(piperidin-1-yl)-N-[(2S)-pyrroldin-2-ylmethyl]-1,5-naphthyridine-4-carboxamide]
100 to 1000	CN(C[C@@H]1CCCN1)C(=O)c1c(N2CCOCC2)cnc2ccc(-c3cccc(O)c3)nc12 [Compound 3-12, 6-(3-hydroxyphenyl)-N-methyl-3-(morpholin-4-yl)-N-[(2S)-pyrrolidin-2-ylmethyl]-1,5-naphthyridine-4-carboxamide]
